Experimental data published in ChEMBL document CHEMBL4800724 (2021).
Activity calls are given as the source filed them. The calls are words filed in the database; no cut-off is given here.

Legend:
[1] = target: Histamine H3 receptor (Homo sapiens) (UniProt Q9Y5N1); conditions: Compound concentration 10.0 uM
[2] = target: D(1A) dopamine receptor (Homo sapiens) (UniProt P21728); conditions: Compound concentration 10.0 uM
[3] = target: D(4) dopamine receptor (Homo sapiens) (UniProt P21917); conditions: Compound concentration 10.0 uM
[4] = target: Alpha-2C adrenergic receptor (Homo sapiens) (UniProt P18825); conditions: Compound concentration 10.0 uM
[5] = target: 5-hydroxytryptamine receptor 2A (Homo sapiens) (UniProt P28223); conditions: Compound concentration 10.0 uM
[6] = target: Kappa-type opioid receptor (Homo sapiens) (UniProt P41145); conditions: Compound concentration 10.0 uM
[7] = target: Histamine H2 receptor (Homo sapiens) (UniProt P25021); conditions: Compound concentration 10.0 uM
[8] = target: T1, Sodium-dependent dopamine transporter (Homo sapiens, UniProt Q01959); conditions: Compound concentration 10.0 uM
[9] = target: Sodium-dependent serotonin transporter (Homo sapiens) (UniProt P31645); conditions: Compound concentration 10.0 uM
[10] = target: Mu-type opioid receptor (Homo sapiens) (UniProt P35372); conditions: Compound concentration 10.0 uM
[11] = target: 5-hydroxytryptamine receptor 1D (Homo sapiens) (UniProt P28221); conditions: Compound concentration 10.0 uM
[12] = target: 5-hydroxytryptamine receptor 1A (Homo sapiens) (UniProt P08908); conditions: Compound concentration 10.0 uM
[13] = target: T2, Sigma non-opioid intracellular receptor 1 (Homo sapiens, UniProt Q99720); conditions: Compound concentration 10.0 uM
[14] = target: Muscarinic acetylcholine receptor M3 (Homo sapiens) (UniProt P20309); conditions: Compound concentration 10.0 uM
[15] = target: T3, GABA-A receptor; anion channel (Rattus norvegicus) (UniProt O09028+P15431+P18506+P18508+P19969+P20236+P23574+P23576+P28471+P28473+P30191+P62813+P63079+P63138+Q91ZM7+Q9ES14); conditions: Compound concentration 10.0 uM
[16] = target: Beta-2 adrenergic receptor (Homo sapiens) (UniProt P07550); conditions: Compound concentration 10.0 uM
[17] = target: 5-hydroxytryptamine receptor 3A (Homo sapiens) (UniProt P46098); conditions: Compound concentration 10.0 uM
[18] = target: 5-hydroxytryptamine receptor 2B (Homo sapiens) (UniProt P41595); conditions: Compound concentration 10.0 uM
[19] = target: Beta-1 adrenergic receptor (Homo sapiens) (UniProt P08588); conditions: Compound concentration 10.0 uM
[20] = target: 5-hydroxytryptamine receptor 6 (Homo sapiens) (UniProt P50406); conditions: Compound concentration 10.0 uM
[21] = target: Delta-type opioid receptor (Homo sapiens) (UniProt P41143); conditions: Compound concentration 10.0 uM
[22] = target: 5-hydroxytryptamine receptor 7 (Homo sapiens) (UniProt P34969); conditions: Compound concentration 10.0 uM
[23] = target: 5-hydroxytryptamine receptor 1E (Homo sapiens) (UniProt P28566); conditions: Compound concentration 10.0 uM
[24] = target: Alpha-2A adrenergic receptor (Homo sapiens) (UniProt P08913); conditions: Compound concentration 10.0 uM
[25] = target: Alpha-1D adrenergic receptor (Homo sapiens) (UniProt P25100); conditions: Compound concentration 10.0 uM
[26] = target: Muscarinic acetylcholine receptor M4 (Homo sapiens) (UniProt P08173); conditions: Compound concentration 10.0 uM
[27] = target: Alpha-1A adrenergic receptor (Homo sapiens) (UniProt P35348); conditions: Compound concentration 10.0 uM
[28] = target: Muscarinic acetylcholine receptor M5 (Homo sapiens) (UniProt P08912); conditions: Compound concentration 10.0 uM
[29] = target: Ubiquitin carboxyl-terminal hydrolase isozyme L1 (Homo sapiens, UniProt P09936); experiment: UCHL1 inhibition assay with Ub-Rho-morpholine as substrate
[30] = target: T1, Sodium-dependent dopamine transporter; experiment: GPCRScan assay: inhibition of DAT; parameters: radioligand conc. used [nm] 3.6 – 16.0, parental cells stable HEK
[31] = target: 5-hydroxytryptamine receptor 5A (Homo sapiens) (UniProt P47898); conditions: Compound concentration 10.0 uM
[32] = target: Alpha-1B adrenergic receptor (Homo sapiens) (UniProt P35368); conditions: Compound concentration 10.0 uM
[33] = target: Muscarinic acetylcholine receptor M1 (Homo sapiens) (UniProt P11229); conditions: Compound concentration 10.0 uM
[34] = target: 5-hydroxytryptamine receptor 2C (Homo sapiens) (UniProt P28335); conditions: Compound concentration 10.0 uM
[35] = target: Alpha-2B adrenergic receptor (Homo sapiens) (UniProt P18089); conditions: Compound concentration 10.0 uM
[36] = target: T3, GABA-A receptor; anion channel (Rattus norvegicus); conditions: Compound concentration 10.0 uM; remark: listed apart in the source
[37] = target: 5-hydroxytryptamine receptor 1B (Homo sapiens) (UniProt P28222); conditions: Compound concentration 10.0 uM
Rattus norvegicus = species: Rattus norvegicus; conditions: Compound concentration 10.0 uM
[38] = target: Histamine H1 receptor (Homo sapiens) (UniProt P35367); conditions: Compound concentration 10.0 uM
[39] = target: D(2) dopamine receptor (Homo sapiens) (UniProt P14416); conditions: Compound concentration 10.0 uM
[40] = target: Sodium-dependent noradrenaline transporter (Homo sapiens) (UniProt P23975); conditions: Compound concentration 10.0 uM
[41] = target: Alpha-2A adrenergic receptor (Homo sapiens, UniProt P08913); experiment: GPCRScan assay: inhibition of Alpha2A; parameters: radioligand conc. used [nm] 1.0 – 3.0, parental cells stable MDCK
[42] = target: T2, Sigma non-opioid intracellular receptor 1; experiment: GPCRScan assay: inhibition of Sigma 1; parameters: radioligand conc. used [nm] 4.0 – 5.0, parental cells HEKT
[43] = target: Muscarinic acetylcholine receptor M2 (Homo sapiens) (UniProt P08172); conditions: Compound concentration 10.0 uM
[44] = target: Beta-3 adrenergic receptor (Homo sapiens) (UniProt P13945); conditions: Compound concentration 10.0 uM
[45] = target: D(1B) dopamine receptor (Homo sapiens) (UniProt P21918); conditions: Compound concentration 10.0 uM
[46] = target: Sigma intracellular receptor 2 (Homo sapiens) (UniProt Q5BJF2); conditions: Compound concentration 10.0 uM
[47] = target: Mitogen-activated protein kinase 14 (Homo sapiens, UniProt Q16539); experiment: NanoBRET (SGC Frankfurt) (MAPK14)
[48] = target: Ubiquitin carboxyl-terminal hydrolase isozyme L1 (Homo sapiens) (UniProt P09936); experiment: UCHL1 activity based protein profiling assay (ABPP)
[49] = target: D(3) dopamine receptor (Homo sapiens) (UniProt P35462); conditions: Compound concentration 10.0 uM
[50] = target: Histamine H4 receptor (Homo sapiens) (UniProt Q9H3N8); conditions: Compound concentration 10.0 uM

T1 sequence (Q01959 whole entry): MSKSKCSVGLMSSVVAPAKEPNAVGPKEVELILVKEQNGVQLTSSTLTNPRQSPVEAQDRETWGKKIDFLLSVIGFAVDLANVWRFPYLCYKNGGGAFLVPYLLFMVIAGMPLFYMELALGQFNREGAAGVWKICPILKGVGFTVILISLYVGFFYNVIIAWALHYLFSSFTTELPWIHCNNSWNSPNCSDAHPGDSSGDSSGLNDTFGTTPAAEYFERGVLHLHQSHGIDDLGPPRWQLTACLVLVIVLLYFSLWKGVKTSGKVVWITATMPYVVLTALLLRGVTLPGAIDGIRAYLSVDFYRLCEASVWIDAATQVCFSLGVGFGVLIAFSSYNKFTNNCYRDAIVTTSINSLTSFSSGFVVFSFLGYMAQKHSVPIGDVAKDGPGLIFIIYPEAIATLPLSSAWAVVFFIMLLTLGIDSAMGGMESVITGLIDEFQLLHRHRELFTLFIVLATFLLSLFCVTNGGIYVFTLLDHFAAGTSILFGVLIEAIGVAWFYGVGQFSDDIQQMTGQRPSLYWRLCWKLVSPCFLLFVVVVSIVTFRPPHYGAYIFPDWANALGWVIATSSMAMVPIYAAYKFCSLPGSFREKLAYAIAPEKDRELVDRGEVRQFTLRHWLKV
T2 sequence (Q99720 whole entry): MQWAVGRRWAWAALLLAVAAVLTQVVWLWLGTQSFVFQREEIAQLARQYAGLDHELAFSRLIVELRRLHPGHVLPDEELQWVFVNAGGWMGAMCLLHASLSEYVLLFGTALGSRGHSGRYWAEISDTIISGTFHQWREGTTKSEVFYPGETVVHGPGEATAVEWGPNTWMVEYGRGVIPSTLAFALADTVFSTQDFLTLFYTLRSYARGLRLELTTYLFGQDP
Chain of Alpha-1D adrenergic receptor (Homo sapiens) (P25100 whole entry): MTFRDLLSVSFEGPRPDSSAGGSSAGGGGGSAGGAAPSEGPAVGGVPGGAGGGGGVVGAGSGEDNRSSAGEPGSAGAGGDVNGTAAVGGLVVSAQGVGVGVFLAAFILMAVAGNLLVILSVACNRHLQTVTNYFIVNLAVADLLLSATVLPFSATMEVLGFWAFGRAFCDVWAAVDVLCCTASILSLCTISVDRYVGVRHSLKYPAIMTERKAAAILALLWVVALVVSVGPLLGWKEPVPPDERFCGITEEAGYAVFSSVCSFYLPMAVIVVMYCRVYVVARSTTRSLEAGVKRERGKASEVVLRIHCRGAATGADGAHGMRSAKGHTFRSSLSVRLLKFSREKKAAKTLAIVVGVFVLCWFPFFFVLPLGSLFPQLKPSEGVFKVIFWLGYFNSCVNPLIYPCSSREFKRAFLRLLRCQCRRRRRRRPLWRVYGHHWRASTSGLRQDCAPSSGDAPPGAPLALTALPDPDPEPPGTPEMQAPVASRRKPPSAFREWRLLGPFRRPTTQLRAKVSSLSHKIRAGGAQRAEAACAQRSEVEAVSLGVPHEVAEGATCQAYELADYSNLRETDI
Chain of Histamine H1 receptor (Homo sapiens) (P35367 whole entry): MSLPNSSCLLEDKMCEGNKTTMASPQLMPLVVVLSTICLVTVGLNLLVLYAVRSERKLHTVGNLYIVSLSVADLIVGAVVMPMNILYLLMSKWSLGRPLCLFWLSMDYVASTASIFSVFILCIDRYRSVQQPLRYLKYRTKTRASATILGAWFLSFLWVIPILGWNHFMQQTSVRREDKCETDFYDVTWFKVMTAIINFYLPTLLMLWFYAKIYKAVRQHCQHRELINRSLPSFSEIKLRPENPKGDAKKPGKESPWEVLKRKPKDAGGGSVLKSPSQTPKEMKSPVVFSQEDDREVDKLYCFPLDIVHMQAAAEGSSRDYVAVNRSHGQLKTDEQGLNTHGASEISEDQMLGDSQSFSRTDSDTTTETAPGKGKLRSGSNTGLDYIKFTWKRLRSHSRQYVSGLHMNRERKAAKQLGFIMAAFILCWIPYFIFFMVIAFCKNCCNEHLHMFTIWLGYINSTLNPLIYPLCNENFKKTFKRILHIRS
Chain of Beta-1 adrenergic receptor (Homo sapiens) (P08588 whole entry, looked up): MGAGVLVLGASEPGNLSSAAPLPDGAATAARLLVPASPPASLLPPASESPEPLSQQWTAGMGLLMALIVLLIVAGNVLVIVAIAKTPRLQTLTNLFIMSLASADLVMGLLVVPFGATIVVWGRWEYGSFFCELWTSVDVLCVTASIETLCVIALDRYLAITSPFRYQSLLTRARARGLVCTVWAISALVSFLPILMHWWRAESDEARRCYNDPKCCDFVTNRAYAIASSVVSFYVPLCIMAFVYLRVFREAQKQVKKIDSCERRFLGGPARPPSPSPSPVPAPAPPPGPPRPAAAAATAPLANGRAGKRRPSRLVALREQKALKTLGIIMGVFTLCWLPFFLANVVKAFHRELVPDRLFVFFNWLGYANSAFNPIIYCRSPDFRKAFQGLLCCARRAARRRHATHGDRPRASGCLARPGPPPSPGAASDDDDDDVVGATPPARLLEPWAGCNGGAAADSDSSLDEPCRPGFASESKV
Chain of 5-hydroxytryptamine receptor 3A (Homo sapiens) (P46098 whole entry): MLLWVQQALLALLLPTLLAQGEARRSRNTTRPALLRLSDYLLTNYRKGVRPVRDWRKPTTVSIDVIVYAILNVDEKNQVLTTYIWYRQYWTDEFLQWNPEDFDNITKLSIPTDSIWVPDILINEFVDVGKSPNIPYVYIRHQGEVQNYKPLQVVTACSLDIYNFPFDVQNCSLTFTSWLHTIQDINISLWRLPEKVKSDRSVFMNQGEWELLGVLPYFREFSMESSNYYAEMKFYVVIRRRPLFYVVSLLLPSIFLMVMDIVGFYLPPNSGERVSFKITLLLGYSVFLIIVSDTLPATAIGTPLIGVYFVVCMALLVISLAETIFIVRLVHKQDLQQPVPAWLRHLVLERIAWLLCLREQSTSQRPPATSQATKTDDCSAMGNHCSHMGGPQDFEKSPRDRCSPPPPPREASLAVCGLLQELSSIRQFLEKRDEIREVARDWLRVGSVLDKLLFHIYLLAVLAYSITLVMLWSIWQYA
Chain of D(4) dopamine receptor (Homo sapiens) (P21917 whole entry): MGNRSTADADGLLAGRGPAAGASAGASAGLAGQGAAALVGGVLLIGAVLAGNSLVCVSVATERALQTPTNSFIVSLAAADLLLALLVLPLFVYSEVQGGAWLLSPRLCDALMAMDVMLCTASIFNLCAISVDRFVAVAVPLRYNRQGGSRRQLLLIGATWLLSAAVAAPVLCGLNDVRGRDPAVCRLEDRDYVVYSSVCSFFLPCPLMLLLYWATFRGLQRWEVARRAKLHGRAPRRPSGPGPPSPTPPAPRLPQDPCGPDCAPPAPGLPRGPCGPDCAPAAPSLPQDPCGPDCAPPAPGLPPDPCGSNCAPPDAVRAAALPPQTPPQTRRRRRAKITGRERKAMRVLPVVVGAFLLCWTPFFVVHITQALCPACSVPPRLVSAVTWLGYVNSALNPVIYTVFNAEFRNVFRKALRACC
Chain of Sodium-dependent noradrenaline transporter (Homo sapiens) (P23975 whole entry): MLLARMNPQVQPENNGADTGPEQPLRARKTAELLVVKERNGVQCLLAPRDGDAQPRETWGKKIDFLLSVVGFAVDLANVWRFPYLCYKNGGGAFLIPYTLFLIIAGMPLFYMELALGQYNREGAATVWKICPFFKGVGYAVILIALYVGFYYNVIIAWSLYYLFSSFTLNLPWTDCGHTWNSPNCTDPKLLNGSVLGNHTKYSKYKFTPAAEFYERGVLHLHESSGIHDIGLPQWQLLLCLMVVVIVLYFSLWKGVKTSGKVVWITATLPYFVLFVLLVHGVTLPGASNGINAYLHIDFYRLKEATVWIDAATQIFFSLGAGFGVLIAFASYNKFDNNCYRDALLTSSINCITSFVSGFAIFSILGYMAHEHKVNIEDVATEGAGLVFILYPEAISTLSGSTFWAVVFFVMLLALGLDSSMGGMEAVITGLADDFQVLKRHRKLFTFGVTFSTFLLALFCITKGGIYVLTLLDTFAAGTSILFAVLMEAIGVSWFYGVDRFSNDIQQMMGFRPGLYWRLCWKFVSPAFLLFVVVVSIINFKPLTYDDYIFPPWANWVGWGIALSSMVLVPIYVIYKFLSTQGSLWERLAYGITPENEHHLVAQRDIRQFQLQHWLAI
Chain of D(2) dopamine receptor (Homo sapiens) (P14416 whole entry): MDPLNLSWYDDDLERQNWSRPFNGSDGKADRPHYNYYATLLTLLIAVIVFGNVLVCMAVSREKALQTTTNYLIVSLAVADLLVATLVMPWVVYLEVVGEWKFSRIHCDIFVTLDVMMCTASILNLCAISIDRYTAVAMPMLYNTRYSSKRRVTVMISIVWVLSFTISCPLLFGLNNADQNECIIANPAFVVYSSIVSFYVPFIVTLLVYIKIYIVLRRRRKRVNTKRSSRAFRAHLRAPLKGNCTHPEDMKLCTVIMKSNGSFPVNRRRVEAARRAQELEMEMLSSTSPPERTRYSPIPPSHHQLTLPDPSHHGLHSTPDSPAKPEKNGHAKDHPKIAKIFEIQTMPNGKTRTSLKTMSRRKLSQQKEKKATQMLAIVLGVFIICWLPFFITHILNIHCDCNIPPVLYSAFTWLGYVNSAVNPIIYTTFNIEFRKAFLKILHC
Chain of Histamine H2 receptor (Homo sapiens) (P25021 whole entry): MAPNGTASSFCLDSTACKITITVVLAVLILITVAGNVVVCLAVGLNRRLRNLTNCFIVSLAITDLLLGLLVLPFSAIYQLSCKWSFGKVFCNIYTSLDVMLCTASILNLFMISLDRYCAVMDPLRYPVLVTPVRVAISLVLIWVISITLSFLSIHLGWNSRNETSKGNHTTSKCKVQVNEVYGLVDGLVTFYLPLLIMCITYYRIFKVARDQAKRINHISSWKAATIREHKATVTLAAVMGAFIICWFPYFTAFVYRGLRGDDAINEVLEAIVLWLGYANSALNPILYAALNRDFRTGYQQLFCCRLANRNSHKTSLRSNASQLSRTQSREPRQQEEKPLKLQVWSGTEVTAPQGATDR
Chain of Sigma intracellular receptor 2 (Homo sapiens) (Q5BJF2 whole entry): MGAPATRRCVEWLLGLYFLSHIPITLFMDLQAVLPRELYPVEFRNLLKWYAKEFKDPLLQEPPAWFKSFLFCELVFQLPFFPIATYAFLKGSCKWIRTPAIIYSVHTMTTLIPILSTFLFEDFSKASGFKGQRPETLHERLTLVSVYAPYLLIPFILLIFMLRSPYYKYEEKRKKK

## N#CN1CC[C@@H](C(=O)Nc2nc3c(s2)CN(C(=O)CN=[N+]=[N-])CC3)C1 [JYQ88]
[1]
  inhibition: -2.11%
[2]
  inhibition: 8.27%
[3]
  inhibition: 5.53%
[4]
  inhibition: 4.21%
[5]
  inhibition: 3.66%
[6]
  inhibition: 13.3%
[7]
  inhibition: 3.43%
[8]
  inhibition: 83%
[9]
  inhibition: 7.66%
[10]
  inhibition: 18.7%
[11]
  inhibition: 20.9%
[12]
  inhibition: 12.1%
[13]
  inhibition: 6.56%
[14]
  inhibition: -2.15%
[15]
  inhibition: 28.7%
[16]
  inhibition: -8.12%
[17]
  inhibition: 0.95%
[18]
  inhibition: 5.55%
[19]
  inhibition: 3.17%
[20]
  inhibition: 8.14%
[21]
  inhibition: 4.07%
[22]
  inhibition: -1.05%
[23]
  inhibition: 6.5%
[24]
  inhibition: 50.7%
[25]
  inhibition: 0.34%
[26]
  inhibition: -1.43%
[27]
  inhibition: 3.73%
[28]
  inhibition: 2.94%
[29]
  IC50: 12.9 µM (not active)
[30]
  Ki: > 10 µM
  pKi: < 5
[31]
  inhibition: 9.64%
[32]
  inhibition: -7.5%
[33]
  inhibition: 24.4%
[34]
  inhibition: 6.22%
[35]
  inhibition: 6.46%
[36]
  inhibition: 34.2%
[37]
  inhibition: 6.13%
Rattus norvegicus
  inhibition: 5.64%
[38]
  inhibition: 0.43%
[39]
  inhibition: 4.82%
[40]
  inhibition: 3.51%
[41]
  Ki: > 10 µM
  pKi: < 5

## N#CN1CC[C@H](C(=O)Nc2nc3c(s2)CN(C(=O)CN=[N+]=[N-])CC3)C1 [8RK64]
[1]
  inhibition: -5.98%
[42]; read-out: Ki
  Ki: 3.43 µM
[42]; read-out: pKi (converted)
  Ki: 3.39 µM
[3]
  inhibition: 4.26%
[4]
  inhibition: 14.7%
[43]
  inhibition: -0.45%
[5]
  inhibition: 30%
[6]
  inhibition: 0.19%
[7]
  inhibition: 0.58%
[8]
  inhibition: -2.33%
[9]
  inhibition: 2.49%
[10]
  inhibition: 12.6%
[11]
  inhibition: -0.37%
[12]
  inhibition: 7.61%
[44]
  inhibition: -3.31%
[13]
  inhibition: 69%
[14]
  inhibition: -1.04%
[15]
  inhibition: -2.35%
[45]
  inhibition: 7.55%
[16]
  inhibition: -0.7%
[17]
  inhibition: 2.31%
[46]
  inhibition: -1.19%
[18]
  inhibition: 5.22%
[19]
  inhibition: -7.19%
[47]
  IC50: 0.32 µM (active)
[20]
  inhibition: 9.94%
[21]
  inhibition: 8.43%
[48]
  Full inhibition: 3 µM
[22]
  inhibition: -0.16%
[23]
  inhibition: 2.35%
[25]
  inhibition: 12.2%
[26]
  inhibition: 4.84%
[49]
  inhibition: -2.14%
[27]
  inhibition: 11.2%
[31]
  inhibition: 11.8%
[33]
  inhibition: 7.58%
[34]
  inhibition: 18.2%
[35]
  inhibition: -1.02%
[36]
  inhibition: -1.06%
[37]
  inhibition: 1.57%
Rattus norvegicus
  inhibition: 21.9%
[38]
  inhibition: 7.45%
[50]
  inhibition: 5.77%
[39]
  inhibition: 0.55%
[40]
  inhibition: 2.61%
